The results in this text go back to US8741592B2, “Methods of screening an agent for an activity in an isolated eye of a teleost” (Phylonix Pharmaceuticals, Inc., priority 2007, dated 2014).

In data set [1] the test system is CoCl2 induced CNV. The data set can be described thus: Eye specific angiogenesis ELISA (eZ-CNV ELISA) on isolated eyes. The class given is in vivo, zebrafish. Particulars: co-treatment with 0.1 mg/ml CoCl2 for 4 days, 4 eyes/well. The procedure:
Calculation of Drug Effects. To reduce the variability contributed by substrate and to compare results from different assays performed on different days, drug effects were normalized to % inhibition on EC proliferation. Chemiluminescent signal (CU) in each well (containing 4 eyes) was measured and used to calculate drug effect. […] In addition, to estimate non-specific background signal, 24 C were processed without antibody incubation; the mean value of which was subtracted from each CU measurement. Mean CU of D was used as 100% control. Drug effect was calculated following formula (a). %Inhibition=(1−(CU(drug treated)/CU(control)))×100% (a)
Based on the visual assessment above, co-treatment chosen as the treatment method to investigate the effects of the anti-angiogenic drugs Celebrex and Genistein in CoCl2 induced CNV in zebrafish using the eZ-CNV™ ELISA. Drug effects were calculated using the method described in Materials and Methods, infra. […] Based on the dose response curve, the optimal concentration for Celebrex was 20 μM and for Genistein was 0.0001 μM.
Methods for Dissociating Eyes from Whole Zebrafish. Zebrafish were processed for whole mount immunochemical staining with either Alexa 488 or HRP conjugated Phy-V following standard procedures. After extensive washing, stained zebrafish were incubated with 150 U/ml collagenase at 37° C. for 45 minutes; eyes were then dissociated from the whole zebrafish by gentle pipetting.
Eye Specific Angiogenesis ELISA (eZ-CNV™ ELISA). Isolated eyes of whole mount Phy-V-HRP stained zebrafish were placed in 96-well microplates, 4 eyes/well; 150 μl/well PS-atto (Lumigen, Southfield, Mich.), chemiluminescence HRP substrate, was added and the chemiluminescence signal from the enzymatic product was detected by Synergy HT microplate reader (BioTeK Instruments, Inc., Winooski, Vt.).
A general note: An ELISA detects its analyte on a solid surface through an enzyme-linked reagent.

A further data set concerns zebrafish eye (retina). The format is in vivo.
The subject of data set [2] is CoCl2 induced CNV. The data set can be described thus: Effect of anti-angiogenic drugs on CoCl2 induced CNV, visual assessment of Phy-V stained whole zebrafish. The class given is in vivo. As to conditions: for Mean ± SE (% CNV) / % CNV (per experiment) / CNV zebrafish (number per experiment): co-treatment with 0.1 mg/ml CoCl2, 24 hpf to 5 dpf; for abnormal neovascularization in the choroidal vessel plexus: co-treatment with CoCl2, 5 dpf zebrafish. How it is done: 24 hpf zebrafish were treated with 0.1 mg/ml CoCl2 continuously for 4 days, and various concentrations of Celebrex or Genistein were incubated with the zebrafish. At the 5 dpf stage, zebrafish were fixed and stained with zebrafish angiogenic-vessel-specific antibody, Phy-V. Several treatment strategies were assessed: (1) pre-treatment (high concentration of drug added for 4 hours and withdrawn before CoCl2 induction); (2) co-treatment (drugs were co-treated with CoCl2); and (3) post-treatment (drugs were added 24 hours after CoCl2).
The drug effects on CNV zebrafish were assessed visually using microscopic examination of Phy-V stained whole zebrafish. % CNV inhibition was calculated by dividing the total number of CNV zebrafish by the total number of zebrafish per experiment (Tables II and III). The percentage of CNV zebrafish was lowest after co-treatment with Celebrex.
Celebrex or Genistein Co-Treatment. Celebrex and Genistein dissolved in DMSO were added directly to fish water, the final concentration of DMSO for Celebrex and Genistein was 0.8%. For pre-treatment, 24 hpf zebrafish were incubated with high concentrations of each drug at 28° C. for 4 hours; the drugs were washed off and zebrafish were treated with 0.1 mg/ml CoCl2. For co-treatment, each drug was added simultaneously with 0.1 mg/ml CoCl2. For post-treatment, each drug was added 24 hours after CoCl2 addition. After drug treatment, zebrafish were washed and processed for whole mount immunochemical staining
Whole Mount Immunofluorescence Staining. Zebrafish were fixed by Dent's fixative (DMSO/methanol=⅓) and processed for whole mount immunochemical staining following standard procedures (Westerfield, 1993, supra). Alexa 488 conjugated Phy-V antibody (Phylonix), which specifically labels activated endothelial cells, was used to stain zebrafish, and followed by examination by fluorescence microscopy.

Data set [3] deals with choroidal neovascularization (CNV) in zebrafish. The data set can be described thus: Hypoxia-induced choroidal neovascularization (CNV) model, Phy-V staining of treated zebrafish. The class given is in vivo.
The test system of the next data set is PEDF. Further details: key: ↑: Up arrows indicate up-regulation; ↓: down arrows indicate down-regulation; —: horizontal line indicates no change. Particulars: zebrafish, in vivo.
Another data set deals with zebrafish. As to conditions: in vivo.
For the next data set, the system named is IGF. Further details: key: ↑: Up arrows indicate up-regulation; ↓: down arrows indicate down-regulation; —: horizontal line indicates no change. Particulars: zebrafish, in vivo.
The next data set concerns VEGF. More on the design: key to VEGF expression (RT-PCR): ↑: Up arrows indicate up-regulation; ↓: down arrows indicate down-regulation; —: horizontal line indicates no change. As to conditions: zebrafish, in vivo.
The test system of a further data set is HIF-1α. Further details: key: ↑: Up arrows indicate up-regulation; ↓: down arrows indicate down-regulation; —: horizontal line indicates no change. Particulars: zebrafish, in vivo.
In the next data set the test system is PGK. More on the design: key: ↑: Up arrows indicate up-regulation; ↓: down arrows indicate down-regulation; —: horizontal line indicates no change. As to conditions: zebrafish, in vivo.
Setting [4] is: CoCl2 + 20 μM Celebrex-treated 5 dpf zebrafish.

Molecules are shown by their SMILES. Several values for one entry are separate records, joined by “and”; a condition that tells them apart may be missing. Identical values can stand only once. Entries after “also recorded” stand apart in the source; their conditions may differ.

Consider `Cc1ccc(-c2cc(C(F)(F)F)nn2-c2ccc(S(N)(=O)=O)cc2)cc1` [Celebrex], for which, in the data set on CoCl2 induced CNV [1], the “dose response in eZ-CNV ELISA” value was “typical dose response curve” and the “optimal concentration based on the dose response curve” value worked out at 20 µM. Besides, in the data set with zebrafish eye (retina) (setting [4]), the “effect on eye development” value is reported as “did not delay eye development” and the retinal structure result is “normal 5 layer structure with no vessels present in the retina”. In addition, in the data set on CoCl2 induced CNV [2] (Celebrex 10 μM), the “Mean ± SE (% CNV)” value came to 37.0 ± 16.1%. Besides, the “Mean ± SE (% CNV)” value in the data set on CoCl2 induced CNV [2] (Celebrex 15 μM) amounted to 22.1 ± 12.4%. In the data set on CoCl2 induced CNV [2] (Celebrex 20 μM), the “% CNV (per experiment)” value was 0% and 10.0%; the “Mean ± SE (% CNV)” value came to 3.3 ± 3.3%. The “abnormal neovascularization in the choroidal vessel plexus” value in the data set on CoCl2 induced CNV [2] was “prevented abnormal neovascularization”. For the same compound, in the data set on CoCl2 induced CNV [2] (post-treatment, drug added 24 hours after CoCl2), the “inhibition of CoCl2 induced CNV after post-treatment” value is “limited inhibition”. The CNV after pre-treatment result with CoCl2 induced CNV [2] (pre-treatment, high concentration of drug 4 hours, withdrawn before CoCl2 induction) is “low percentage of CNV zebrafish, however, the CNV defects were severe”.
On to `[Cl-].[Cl-].[Co+2]` [CoCl2], for which, in data set [3] (zebrafish, in vivo), the “frequency or severity of CNV” value is reported as “did not increase the frequency or severity of CNV”, the “number of treated zebrafish exhibiting CNV specific phenotype” value was found to be 64, the “treated zebrafish exhibiting CNV specific phenotype” value worked out at 63.6±11.1% and the vessel growth result is reported as “did not stimulate vessel growth”. In the data set on PEDF, the “PEDF expression (RT-PCR)” value is recorded as “—”. In the data set on zebrafish eye (retina) (zebrafish, in vivo), the “retinal structure / vessels in the retina” value is reported as “abnormal vessels formed in the retina; also recorded: abnormal retinal structure”. In addition, in the data set on zebrafish, the lethality entry is given as “instantaneous death” and the zebrafish dying was 100%. In the data set on IGF, the “IGF expression (RT-PCR)” value is listed as “—”. Also, in the data set with VEGF, the “VEGF expression (RT-PCR)” value was “— and ↑”; the “VEGF expression (RT-PCR), in words” value is recorded as “Up-regulation”. The “HIF-1α expression (RT-PCR)” value with HIF-1α was “↑ and ↓ and —”. For the same compound, the “PGK expression (RT-PCR)” value with PGK is on record as “—”.
In the case of `O=c1c(-c2ccc(O)cc2)coc2cc(O)cc(O)c12` [Genistein], in the data set with CoCl2 induced CNV [1], the “dose response in eZ-CNV ELISA” value is reported as “only showed preventative effects at a low concentration” and the “optimal concentration based on the dose response curve” value worked out at 0.0001 µM. The “Mean ± SE (% CNV)” value in the data set with CoCl2 induced CNV [2] (Genistein 0.0001 μM) is reported as 20.8%. In addition, in the data set on CoCl2 induced CNV [2] (Genistein 0.001 μM), the “% CNV (per experiment)” value was 36.8% and 39.1%; the “CNV zebrafish (number per experiment)” value was 7 and 9; the “Mean ± SE (% CNV)” value came out at 38.0%. For the same compound, in the data set on CoCl2 induced CNV [2] (Genistein 0.01 μM), the “% CNV (per experiment)” value was 23.5%, the “CNV zebrafish (number per experiment)” value is given as 4 and the “Mean ± SE (% CNV)” value worked out at 23.5%. In addition, in the data set on CoCl2 induced CNV [2], the “abnormal neovascularization in the choroidal vessel plexus” value is recorded as “prevented abnormal neovascularization”.
As for `CC(C)(S)[C@@H](N)C(=O)O` [Penicillamine], the CNV entry in data set [3] (0.01 μM Penicillamine from 24 hpf, at 5 dpf) was “CNV was observed”. Also, the angiogenesis result in data set [3] (0.01 μM Penicillamine treatment at the 24 hpf stage) is listed as “stimulated angiogenesis throughout the zebrafish”. Besides, in [3] (Penicillamine treatment), the “zebrafish developing CNV compared with CoCl2 treatment” value is “Fewer zebrafish developed CNV”.
